Reference: ChEMBL document CHEMBL1201862, “PubChem BioAssay data set” (2004)
The source made the active and inactive calls.

Experiments:
[1] = toxicity to human hepatoma HepG2 cells – cell-based, cherry-picked samples, cytotoxicity control, dose response (AID 1159577); type: functional
[2] = P. falciparum Dd2 growth inhibitors, dose response, SYBR Green, cherry-picked samples (AID 1159567); type: functional, cell-based
[3] = tested on: Streptococcus; test: GAS UMAA2166 growth inhibition – luminescence, BacTiterGlo, counter-screen for streptokinase expression inhibitor project, dose response (AID 1915); type: functional, organism-based;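 note: potency for reduction of bacterial viability or growth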
[4] = molecular target: T1, Streptokinase A (Streptococcus pyogenes serotype M1, UniProt P10520); test: viability-normalized secreted streptokinase activity reduction – plasminogen activation absorbance, OD405, dose response (AID 1914); type: functional, Streptococcus pyogenes M1 GAS;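 note: secreted streptokinase activity via plasminogen activation per viability signal from cell pellet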
T1 sequence (P10520 whole entry): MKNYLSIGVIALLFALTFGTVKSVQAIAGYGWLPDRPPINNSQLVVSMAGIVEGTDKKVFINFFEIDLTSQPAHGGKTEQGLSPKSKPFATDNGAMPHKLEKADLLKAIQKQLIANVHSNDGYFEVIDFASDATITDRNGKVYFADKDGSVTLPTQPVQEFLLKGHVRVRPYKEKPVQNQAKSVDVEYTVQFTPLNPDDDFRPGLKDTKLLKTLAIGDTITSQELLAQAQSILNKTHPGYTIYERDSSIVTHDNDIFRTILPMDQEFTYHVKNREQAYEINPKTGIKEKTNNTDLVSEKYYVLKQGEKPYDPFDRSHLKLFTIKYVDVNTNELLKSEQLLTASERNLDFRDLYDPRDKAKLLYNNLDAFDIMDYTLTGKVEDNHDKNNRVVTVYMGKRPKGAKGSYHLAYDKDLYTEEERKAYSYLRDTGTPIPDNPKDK

[5] = viability of PTEN-deleted HCT116 cells – cell-based, HCT116 PTEN knockout, dose response (AID 1047); type: functional;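 note: HCT116 colon tumor cells with PTEN knocked out; cells exposed to compound for 60 hours before readout; potency for loss of cell viability measured by luminescence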
[6] = molecular target: Disintegrin and metalloproteinase domain-containing protein 17 (Homo sapiens, UniProt P78536); test: inhibition of ADAM17 substrate cleavage – biochemical, quenched FRET substrate, counter-screen for ADAM10 exosite inhibitor project, dose response (AID 743253)
[7] = molecular target: T2, Protein skinhead-1 (Caenorhabditis elegans, UniProt P34707); type: functional
T2 sequence (P34707 whole entry): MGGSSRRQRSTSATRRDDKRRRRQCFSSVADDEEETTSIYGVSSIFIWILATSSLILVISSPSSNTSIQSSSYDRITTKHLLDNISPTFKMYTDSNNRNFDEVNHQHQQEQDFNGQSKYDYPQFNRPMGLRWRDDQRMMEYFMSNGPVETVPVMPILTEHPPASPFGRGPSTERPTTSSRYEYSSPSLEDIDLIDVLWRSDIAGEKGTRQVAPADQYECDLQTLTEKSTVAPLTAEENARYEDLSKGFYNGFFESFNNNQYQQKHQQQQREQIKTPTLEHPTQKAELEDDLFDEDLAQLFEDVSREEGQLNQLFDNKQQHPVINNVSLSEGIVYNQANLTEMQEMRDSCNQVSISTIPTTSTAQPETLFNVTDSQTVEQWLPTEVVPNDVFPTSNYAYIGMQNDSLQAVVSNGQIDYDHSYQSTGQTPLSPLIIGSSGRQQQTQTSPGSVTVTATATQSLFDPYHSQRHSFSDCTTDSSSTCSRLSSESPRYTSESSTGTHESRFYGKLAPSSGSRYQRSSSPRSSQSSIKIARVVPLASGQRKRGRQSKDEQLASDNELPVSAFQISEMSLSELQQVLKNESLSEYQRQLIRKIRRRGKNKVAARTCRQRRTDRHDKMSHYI

[8] = viability of HCT116 lacking mutant beta-catenin – cell-based, human colon tumor, dose response (AID 1045); type: functional;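 note: HCT116 colon tumor cells with beta catenin knocked out; cells exposed to compound for 60 hours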
[9] = tested on: Streptococcus sp. 'group A'; test: Streptococcus pyogenes SK(-)GAS viability under kanamycin – luminescence, BacTiterGlo, confirmation, counter-screen for streptokinase expression inhibitor project, dose response (AID 1900); type: functional, organism-based
[10] = viability loss in HEK293 cells – cell-based, plate reader, cherry-picked samples, cytotoxicity control, dose response (AID 743446); type: functional
[11] = A549 cell cytotoxicity, dose response, cytotoxicity control, plate reader, cherry-pick, antagonist series (AID 743412); type: functional, cell-based
[12] = blockade of melanocortin 4 receptor signaling – cell-based, plate reader, cherry pick, counter-screen for LGR2 antagonist project, dose response (AID 743444); type: functional;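 note: transfected HEK 293 cells stimulated with alpha-MSH peptide; potency of inhibitors of the alpha-MSH evoked signal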
[13] = blockers of bursicon-stimulated LGR2 cAMP reporter – cell-based, HEK293, CRE-luciferase reporter, cherry pick, set 2, dose response (AID 743343); type: functional;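 note: transfected cells were stimulated with diluted bursicon conditioned medium after compound addition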
[14] = general cell-killing toxicity readout – plate reader, dry powder samples, cytotoxicity control for PAX8 inhibitor project, dose response (AID 743021); type: functional, cell-based
[15] = toxicity toward HepG2 liver cells – cell-based, plate reader, cherry-pick, antagonist series, cytotoxicity control, dose response (AID 743416); type: functional
[16] = OVCAR-3 cell viability loss – plate reader, dry powder samples, PAX8 inhibitor project, dose response (AID 743044); type: functional, cell-based
[17] = OVCAR8 cell viability loss – plate reader, dry powder samples, PAX8 project, dose response (AID 743197); type: functional, cell-based; conditions: OVCAR-8
[18] = molecular target: Paired box protein Pax-8 (Homo sapiens, UniProt Q06710); test: PAX8 transcriptional activity inhibition in RMG-I – RMG-I cells, luciferase, cherry-pick, dose response (AID 687027); type: functional, cell-based;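 note: luciferase reporter driven by Pax8 target thyroperoxidase promoter measured by SteadyGlo luminescence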
[19] = tested on: HEK293; test: EBV LMP1 TES2 canonical NF-kB signalling blockers – cell-based, HEK293, luciferase, cherry-pick, dose response (AID 588343); type: functional; conditions: Homo sapiens
[20] = molecular target: NAD-dependent protein deacylase sirtuin-5, mitochondrial (Homo sapiens, UniProt Q9NXA8); test: sirtuin-5 deacylation blockers, concentration series – biochemical, fluorescence imaging, cherry-pick, set 5, dose response (AID 720591);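 note: desuccinylation of succinyl peptide AMC substrate read as fluorescence after trypsin release; potency of inhibitors that lower fluorescence and may act on trypsin instead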
[21] = molecular target: Major prion protein (Homo sapiens, UniProt P04156); type: functional, cell-based
[22] = cells
[23] = A2780 cell killing – plate reader, dry powder samples, cytotoxicity control, dose response (AID 743046); type: functional, cell-based
[24] = IC50 of Artemis nuclease activity blockers – biochemical, fluorescence intensity, dose response (AID 720701); type: functional;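 note: Artemis endonuclease enzyme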
[25] = tested on: Vero; test: viability of Vero cells under compound – cytotoxicity control for flavivirus capping enzyme inhibitors (AID 588742); type: functional; conditions: Chlorocebus sabaeus
[26] = molecular target: T3, Apoptotic protease-activating factor 1 (Homo sapiens, UniProt O14727); type: functional
T3 sequence (O14727 whole entry): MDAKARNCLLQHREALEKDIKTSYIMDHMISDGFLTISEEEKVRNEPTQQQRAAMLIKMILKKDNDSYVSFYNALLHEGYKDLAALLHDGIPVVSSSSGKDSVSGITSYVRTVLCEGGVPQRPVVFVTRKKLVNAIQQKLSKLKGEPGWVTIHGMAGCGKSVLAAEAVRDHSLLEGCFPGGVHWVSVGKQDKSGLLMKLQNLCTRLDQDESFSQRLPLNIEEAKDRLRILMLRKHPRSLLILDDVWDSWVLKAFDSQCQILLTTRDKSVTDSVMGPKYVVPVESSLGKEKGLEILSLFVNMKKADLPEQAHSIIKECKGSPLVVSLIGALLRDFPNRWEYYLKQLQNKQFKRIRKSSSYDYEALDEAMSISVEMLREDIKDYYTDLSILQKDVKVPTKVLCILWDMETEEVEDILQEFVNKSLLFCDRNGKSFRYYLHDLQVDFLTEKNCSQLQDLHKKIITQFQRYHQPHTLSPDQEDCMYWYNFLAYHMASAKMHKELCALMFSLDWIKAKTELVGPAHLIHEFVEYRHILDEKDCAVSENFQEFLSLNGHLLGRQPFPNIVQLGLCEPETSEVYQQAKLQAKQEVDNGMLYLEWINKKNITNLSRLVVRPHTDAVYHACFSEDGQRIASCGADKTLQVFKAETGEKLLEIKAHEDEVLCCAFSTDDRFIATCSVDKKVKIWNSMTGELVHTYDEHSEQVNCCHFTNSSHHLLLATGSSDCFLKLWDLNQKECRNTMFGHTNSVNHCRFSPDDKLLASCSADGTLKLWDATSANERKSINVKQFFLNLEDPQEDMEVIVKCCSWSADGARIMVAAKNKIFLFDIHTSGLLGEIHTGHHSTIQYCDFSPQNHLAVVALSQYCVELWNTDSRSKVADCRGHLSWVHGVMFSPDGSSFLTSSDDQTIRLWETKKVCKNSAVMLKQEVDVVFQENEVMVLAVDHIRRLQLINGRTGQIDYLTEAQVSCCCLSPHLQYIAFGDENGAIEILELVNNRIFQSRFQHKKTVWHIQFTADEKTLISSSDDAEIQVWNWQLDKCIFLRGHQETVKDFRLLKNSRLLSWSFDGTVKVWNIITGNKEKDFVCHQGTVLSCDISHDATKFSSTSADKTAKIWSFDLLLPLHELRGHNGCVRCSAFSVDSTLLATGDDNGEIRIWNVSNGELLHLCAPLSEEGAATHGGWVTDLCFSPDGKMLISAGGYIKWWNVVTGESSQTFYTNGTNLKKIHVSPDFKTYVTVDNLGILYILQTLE

[27] = molecular target: Induced myeloid leukemia cell differentiation protein Mcl-1 (Homo sapiens, UniProt Q07820); type: functional
[28] = molecular target: T4, Mannose-6-phosphate isomerase (Homo sapiens, UniProt P34949); test: MPI inhibition at elevated mannose 6-phosphate – biochemical, fluorescence intensity, high mannose 6-phosphate, primary screen (AID 1220)
T4 sequence (P34949 whole entry): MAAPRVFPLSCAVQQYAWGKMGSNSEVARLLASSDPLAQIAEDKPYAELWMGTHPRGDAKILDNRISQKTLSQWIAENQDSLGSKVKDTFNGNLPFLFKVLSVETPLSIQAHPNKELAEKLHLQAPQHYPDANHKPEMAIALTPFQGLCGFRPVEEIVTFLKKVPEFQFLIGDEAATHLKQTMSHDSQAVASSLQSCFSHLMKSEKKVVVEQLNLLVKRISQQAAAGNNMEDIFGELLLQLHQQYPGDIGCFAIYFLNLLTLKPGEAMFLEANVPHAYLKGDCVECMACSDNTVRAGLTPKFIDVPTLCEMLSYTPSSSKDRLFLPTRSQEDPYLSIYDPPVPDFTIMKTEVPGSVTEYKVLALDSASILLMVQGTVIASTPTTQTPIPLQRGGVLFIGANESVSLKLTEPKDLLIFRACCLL

SMILES: COc1ccccc1NC(=O)N1CCCCN2[C@H](CO)[C@H](c3ccc(C#Cc4ccccc4)cc3)[C@H]2C1
- AC50 [1]: 8.11 µM (active)
- AC50 [2]: 1.03 µM (active)

SMILES: CCCNC(=O)N1CC2(CCN(Cc3cccc(OC)c3)CC2)c2c(n(C)c3cc(OC)ccc23)[C@@H]1CO
- AC50 [1]: 21.1 µM (active)
- AC50 [2]: 4.94 µM (active)

SMILES: COc1ccc(S(=O)(=O)Nc2cc3c4c(oc3c3ccccc23)CC(C)(C)CC4=O)cc1
- EC50 [3]: 78.6 µM (active)
- EC50 [4]: 97 µM (active)
- EC50 [5]: 20.1 µM (active)
- IC50 [6]: > 69.5 µM (inactive)
- IC50 [7]: > 100 µM (inactive)
- EC50 [8]: 26.6 µM (active)
- EC50 [9]: 9.62 µM (active)

SMILES: O=S(=O)(c1ccccc1F)N1CC[C@@H]2[C@H]1c1cc(-c3cccc(F)c3)ccc1N[C@@H]2CO
- AC50 [10]: 15.3 µM (active)
- AC50 [11]: 8.1 µM (active)
- AC50 [12]: 11.2 µM (active)
- AC50 [13]: 11.1 µM (active)
- AC50 [14]: 5.52 µM (active)
- AC50 [15]: 18.6 µM (active)
- AC50 [16]: 49 µM (active)
- AC50 [17]: 15.6 µM (active)
- AC50 [18]: 4.09 µM (active)

SMILES: CC(Sc1nc(-c2ccc(F)cc2)cs1)C(=O)N1c2ccccc2CC1C (configuration not stated)
- AC50 [19]: 117 µM (active)
- AC50 [20]: > 30 µM (inactive)

SMILES: Cn1nc(C(F)(F)F)c(/C=N/OC(=O)c2ccccc2Cl)c1SCc1ccccc1Cl
- IC50 [21]: 4.68 µM (active)
- IC50 [22]: > 138 µM (inactive)

SMILES: C[C@H](CO)N1C[C@H](C)[C@@H](CN(C)Cc2ccc(Cl)c(Cl)c2)OCCCC[C@H](C)Oc2ccc(NS(=O)(=O)c3ccc(F)cc3)cc2C1=O
- AC50 [23]: 49.6 µM (active)
- AC50 [17]: > 70 µM (inactive)
- AC50 [18]: 15.6 µM (active)

SMILES: CCOc1cccc(C(=O)NC(=S)Nc2ccc(N3CCCC3)cc2)c1
- IC50 [24]: > 20 µM (inactive)

SMILES: C[C@@H]1C=CCCO[C@]12C(=O)N(Cc1ccccc1C(F)(F)F)c1ccccc12
- AC50 [20]: > 30 µM (inactive)

SMILES: C[C@@H]1CN([C@@H](C)CO)C(=O)c2cc(NC(=O)Nc3ccc(C(F)(F)F)cc3)ccc2O[C@@H](C)CCCCO[C@H]1CN(C)C(=O)c1ccccc1
- AC50 [23]: 54.3 µM (active)
- AC50 [17]: > 70 µM (inactive)
- AC50 [18]: 5.18 µM (active)

SMILES: NS(=O)(=O)c1cnccc1Nc1ccc(Cl)cc1
- AC50 [20]: > 30 µM (inactive)

SMILES: O=C(C1=C(O)C(=O)N(CCN2CCOCC2)C1c1cccc(Br)c1)c1cc2ccccc2o1 (configuration not stated)
- IC50 [21]: 3.22 µM (active)
- IC50 [22]: > 138 µM (inactive)

SMILES: COC(=O)CSc1ncnc2scc(-c3ccccc3)c12
- IC50 [21]: 5.59 µM (active)
- IC50 [22]: > 138 µM (inactive)

SMILES: Cc1ccc(N=Nc2c(N)nn3c(O)cc(-c4ccccc4)nc23)cc1
- CC50 [25]: 25.1 µM (active)
- IC50 [24]: 16.9 µM (active)
- IC50 [26]: 13.8 µM (active)
- IC50 [27]: 12.9 µM (active)

SMILES: Oc1nc2cc3c(cc2cc1CN(Cc1cccnc1)C(S)=NCc1ccco1)OCCO3
- IC50 [28]: > 50 µM (not active)
